In patent publication US7462642B2, “Anti-cancer combinations” (Cancer Research Technology Limited, priority 2003, dated 2008):
“Also recorded” adds a separate entry of the source. Like-named read-outs stand apart in the source and are kept apart here.

How the values were obtained:
[1] = DMXAA plasma pharmacokinetic studies (HPLC assay); type: in vivo, mice
Experimental: (§1) DMXAA was synthesized as the sodium salt (Rewcastle et al (1990) Journal of National Cancer Institute 82:528-529). DMXAA sodium salt was dissolved in sterile water and 25 mg/kg in a volume of 0.1 ml per 10 g body weight was injected intraperitoneally (i.p.) into mice.
Diclofenac (Sigma) was dissolved in dimethylsulphoxide, and was injected i.p. into mice in a volume of 25 μl per 10 g body weight. The required dose of diclofenac was injected concurrently with DMXAA.

human tumours = conditions: Phase I clinical trials; well-tolerated doses; cited from earlier work
colon 38 tumours = test: Tumour growth delay assay; type: in vivo, C57B1/6 mice
Experimental: C57B1/6 mice from the Animal Resource Unit, University of Auckland, were bred and housed under conditions of constant temperature and humidity, with sterile bedding and food, according to institutional ethical guidelines. All mice were aged between 8 and 12 weeks.
as §1
Diclofenac (Sigma) was dissolved in dimethylsulphoxide, and was injected i.p. into mice in a volume of 25 μl per 10 g body weight. […]
Colon 38 tumour fragments (˜1 mm^3) were implanted subcutaneously (s.c.) in the left flank of anaesthetized (sodium pentobarbital, 81 mg/kg) mice. […] Tumour-bearing mice were treated with drugs according to the administration schedule described before, and the tumours measured using calipers, three times weekly thereafter. Tumour volumes were calculated as 0.52a^2b, where a and b are the minor and major axes of the tumour, respectively. The arithmetic means were calculated for each time point, counting cured tumours as zero volume. The growth delay was determined as the difference in the number of days required for the control versus treated tumours to increase four times in volume. […]

[2] = test system: tumours or human tumour xenografts; conditions: preclinical studies; cited from earlier work
[3] = test system: 6-methylhydroxylation of DMXAA; conditions: diclofenac 100 μM; mouse and human microsomes; cited from earlier work
glucoronidation of DMXAA = conditions: diclofenac 100 μM; mouse and human microsomes; cited from earlier work
[4] = cited from earlier work

Row | Compound | AUC ([1]; mouse, plasma, ip, 0-6 hours, DMXAA 25 mg/kg i.p. alone or with diclofenac 5 mg/kg) [µM·h] | half-life ([1]; mouse, plasma, ip, DMXAA 25 mg/kg i.p. alone or with diclofenac 5 mg/kg) [h] | tumour blood flow (dynamic MRI) (human tumours) | mice cured (colon 38 tumours; s.c. colon 38 tumours, DMXAA 25 mg/kg alone or with diclofenac 5 mg/kg i.p., 5 mice per group) | tumour blood flow [2] | effect on DMXAA plasma concentrations ([1]; 3 hours after administration, DMXAA 25 mg/kg with diclofenac doses below 100 mg/kg) | inhibition of 6-methylhydroxylation of DMXAA [3] [%] | inhibition of glucoronidation of DMXAA (glucoronidation of DMXAA) [%] | effect on the growth of colon 38 tumours (colon 38 tumours; diclofenac alone 5 mg/kg i.p.) | increase in the plasma DMXAA AUC ([4]; diclofenac 100 mg/kg i.p., female mice) [%] | increase in DMXAA T1/2 ([4]; diclofenac 100 mg/kg i.p., male and female mice, P<0.05) | increase in the plasma DMXAA AUC ([4]; diclofenac 100 mg/kg i.p., male mice) [%] | increase in the plasma concentration and AUC of DMXAA ([4]; diclofenac 100 mg/kg, mice)
1 | Cc1ccc2c(=O)c3cccc(CC(=O)O)c3oc2c1C [DMXAA, 5,6-dimethylxanthenone-4-acetic acid] | 1330 | 2.7 | significant reduction in tumour blood flow | none of the mice were cured; also recorded: no cure | prolonged inhibition of tumour blood flow | – | – | – | – | – | – | – | –
2 | O=C(O)Cc1ccccc1Nc1c(Cl)cccc1Cl [diclofenac, 2-[(2,6-dichlorophenyl)amino]benzeneacetic acid] | – | – | – | – | – | no significant effect | > 54 | > 70 | no significant effect | 31 | threefold increase | 24 | 24-31%
